Laboratory results reported in paper PMC6630910 (Pharmaceuticals, 2019).
pIC50: −log10 of the molar value.

Key:
[1] = biological target: P-I type metalloproteinase Batx-I (Bothrops atrox, UniProt P0DJE1); assay: biochemical
[2] = test system: PLA2 from snake venoms; details: same methodology as this paper; read-out: IC50 (PLA2 inhibition); cited from earlier work

Sequence of P-I type metalloproteinase Batx-I (P0DJE1 whole entry, looked up): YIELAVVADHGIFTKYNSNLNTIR

SMILES | activity at 2000 µM ([1]; read-out: Batx-I proteolytic activity still observed) | melting point | pIC50 [1] | pIC50 [2]
CCOC(=O)CSC(=O)c1ccc(Cl)cc1 [Compound I, Ethyl 2-((4-chlorobenzoyl)thio)acetate] | 70% | 55.6 °C |  | 
CCOC(=O)CSC(=O)c1ccc([N+](=O)[O-])cc1 [III, Ethyl 2-((4-nitrobenzoyl)thio)acetate] |  | 56.2 °C | 2.73 | 
COc1cc(O)c2c(c1)O[C@H](c1ccccc1)CC2=O [Pinostrobin] |  |  |  | 2.73
CCOC(=O)CSC(=O)c1cccc([N+](=O)[O-])c1 [II, Ethyl 2-((3-nitrobenzoyl)thio)acetate] |  | 44.5 °C | 2.56 | 
O=C1c2c(O)cc(O)cc2O[C@H](c2ccc(O)cc2)[C@H]1c1c(O)cc(O)c2c(=O)cc(-c3ccc(O)c(O)c3)oc12 [Morelloflavone] |  |  |  | 3.42
